In ChEMBL document CHEMBL1201862, “PubChem BioAssay data set” (2004):
The source made the active and inactive calls.

How the values were obtained:
[1] = biological target: Tyrosine-protein kinase receptor TYRO3 (Homo sapiens, UniProt Q06418); assay type: functional;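 also: TYRO3 value obtained as one member of a kinome-wide profiling panel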
[2] = biological target: Inhibitor of nuclear factor kappa-B kinase subunit epsilon (Homo sapiens, UniProt Q14164); test: Navigating the Kinome. Panel member name: IKBKE; assay type: functional
[3] = biological target: Cyclin-dependent kinase 9 (Homo sapiens, UniProt P50750); assay type: functional;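 also: value from the CDK9 entry of a kinome-spanning kinase panel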
Chain of Cyclin-dependent kinase 9 (P50750 whole entry): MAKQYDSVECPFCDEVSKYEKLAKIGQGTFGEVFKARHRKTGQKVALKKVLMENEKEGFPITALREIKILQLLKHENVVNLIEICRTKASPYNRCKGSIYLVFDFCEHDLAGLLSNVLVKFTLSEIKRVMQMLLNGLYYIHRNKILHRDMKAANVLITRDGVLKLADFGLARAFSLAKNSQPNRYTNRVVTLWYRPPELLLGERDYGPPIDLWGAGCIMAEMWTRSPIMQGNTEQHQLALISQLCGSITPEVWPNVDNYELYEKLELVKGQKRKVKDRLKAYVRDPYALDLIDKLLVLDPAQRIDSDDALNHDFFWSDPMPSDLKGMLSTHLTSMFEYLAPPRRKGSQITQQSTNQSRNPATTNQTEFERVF

[4] = biological target: Tyrosine-protein kinase Fyn (Homo sapiens, UniProt P06241); assay type: functional
[5] = biological target: Rho-associated protein kinase 1 (Homo sapiens, UniProt Q13464); assay type: functional;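 also: measured within a broad kinome-wide panel profiling many kinases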
[6] = biological target: Serine/threonine-protein kinase D3 (Homo sapiens, UniProt O94806); assay type: functional;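 also: determined within a kinase panel screen, with PRKCN as the panel member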
[7] = biological target: BDNF/NT-3 growth factors receptor (Homo sapiens, UniProt Q16620); assay type: functional;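 also: NTRK2 measured as one member of a broad kinome-wide kinase profiling panel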
[8] = biological target: Cyclin-dependent kinase 8 (Homo sapiens, UniProt P49336); test: Navigating the Kinome. Panel member name: CDK8; assay type: functional
Chain of Cyclin-dependent kinase 8 (P49336 whole entry): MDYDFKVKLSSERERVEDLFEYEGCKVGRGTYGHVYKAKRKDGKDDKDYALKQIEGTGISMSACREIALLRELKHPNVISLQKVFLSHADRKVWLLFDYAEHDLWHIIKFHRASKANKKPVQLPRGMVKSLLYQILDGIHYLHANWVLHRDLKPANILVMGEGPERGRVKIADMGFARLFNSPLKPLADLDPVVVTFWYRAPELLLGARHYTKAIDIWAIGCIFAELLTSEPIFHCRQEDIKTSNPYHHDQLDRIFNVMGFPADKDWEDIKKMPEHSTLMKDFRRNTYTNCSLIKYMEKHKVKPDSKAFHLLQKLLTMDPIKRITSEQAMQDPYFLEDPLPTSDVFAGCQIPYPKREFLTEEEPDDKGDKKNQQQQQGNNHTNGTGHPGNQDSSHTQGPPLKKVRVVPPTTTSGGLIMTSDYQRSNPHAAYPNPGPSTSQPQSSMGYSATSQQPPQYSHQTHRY

[9] = biological target: Tyrosine-protein kinase JAK3 (Homo sapiens, UniProt P52333); assay type: functional
[10] = biological target: Dual specificity mitogen-activated protein kinase kinase 1 (Homo sapiens, UniProt Q02750); test: Navigating the Kinome. Panel member name: MAP2K1; assay type: functional
[11] = biological target: 5'-AMP-activated protein kinase catalytic subunit alpha-1 (Homo sapiens, UniProt Q13131); assay type: functional
[12] = biological target: cAMP-dependent protein kinase catalytic subunit PRKX (Homo sapiens, UniProt P51817); assay type: functional
Chain of cAMP-dependent protein kinase catalytic subunit PRKX (P51817 whole entry): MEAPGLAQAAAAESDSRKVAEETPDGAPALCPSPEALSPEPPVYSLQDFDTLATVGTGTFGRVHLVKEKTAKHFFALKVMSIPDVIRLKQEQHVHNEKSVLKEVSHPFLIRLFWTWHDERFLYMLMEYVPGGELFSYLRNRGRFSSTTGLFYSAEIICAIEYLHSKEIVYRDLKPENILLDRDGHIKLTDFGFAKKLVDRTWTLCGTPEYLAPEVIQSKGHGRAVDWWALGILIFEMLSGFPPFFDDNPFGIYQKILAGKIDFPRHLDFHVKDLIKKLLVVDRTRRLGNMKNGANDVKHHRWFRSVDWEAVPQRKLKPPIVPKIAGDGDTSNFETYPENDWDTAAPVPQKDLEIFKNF

[13] = biological target: Protein kinase C theta type (Homo sapiens, UniProt Q04759); test: Navigating the Kinome. Panel member name: PRKCQ; assay type: functional
Chain of Protein kinase C theta type (Q04759 whole entry): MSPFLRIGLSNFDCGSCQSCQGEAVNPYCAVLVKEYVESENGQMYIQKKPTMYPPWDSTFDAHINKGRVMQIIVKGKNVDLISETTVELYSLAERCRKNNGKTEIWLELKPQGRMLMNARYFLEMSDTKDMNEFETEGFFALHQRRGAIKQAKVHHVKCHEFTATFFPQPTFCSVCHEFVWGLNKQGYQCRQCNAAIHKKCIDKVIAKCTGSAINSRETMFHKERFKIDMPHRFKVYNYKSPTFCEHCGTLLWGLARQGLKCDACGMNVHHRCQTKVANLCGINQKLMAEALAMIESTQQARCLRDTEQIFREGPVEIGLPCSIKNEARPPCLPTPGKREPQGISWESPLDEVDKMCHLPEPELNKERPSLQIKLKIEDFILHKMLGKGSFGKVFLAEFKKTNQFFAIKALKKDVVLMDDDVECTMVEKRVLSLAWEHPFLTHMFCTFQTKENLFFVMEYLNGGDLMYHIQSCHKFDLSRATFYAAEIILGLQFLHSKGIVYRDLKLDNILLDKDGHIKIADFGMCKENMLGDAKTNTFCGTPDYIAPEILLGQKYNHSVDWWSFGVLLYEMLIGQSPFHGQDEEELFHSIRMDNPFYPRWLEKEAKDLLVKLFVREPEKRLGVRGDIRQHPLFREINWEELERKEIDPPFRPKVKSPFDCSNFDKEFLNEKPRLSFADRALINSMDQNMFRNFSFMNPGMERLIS

[14] = biological target: ALK tyrosine kinase receptor (Homo sapiens, UniProt Q9UM73); assay type: functional;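 also: ALK tested as one member of a kinase panel screen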
[15] = biological target: Dual specificity tyrosine-phosphorylation-regulated kinase 1A (Homo sapiens, UniProt Q13627); assay type: functional;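 also: measured against DYRK1A as one member of a broad kinome profiling panel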
Aurora kinase B = Aurora kinase B (Homo sapiens, UniProt Q96GD4); assay type: functional
[16] = biological target: Tyrosine-protein kinase Lck (Homo sapiens, UniProt P06239); assay type: functional;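 also: lck was assayed as one member of a kinase panel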
Aurora kinase A = Aurora kinase A (Homo sapiens, UniProt O14965); assay type: functional;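 also: value from the Navigating the Kinome kinase panel profiling, panel entry STK6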
Chain of Aurora kinase A (O14965 whole entry): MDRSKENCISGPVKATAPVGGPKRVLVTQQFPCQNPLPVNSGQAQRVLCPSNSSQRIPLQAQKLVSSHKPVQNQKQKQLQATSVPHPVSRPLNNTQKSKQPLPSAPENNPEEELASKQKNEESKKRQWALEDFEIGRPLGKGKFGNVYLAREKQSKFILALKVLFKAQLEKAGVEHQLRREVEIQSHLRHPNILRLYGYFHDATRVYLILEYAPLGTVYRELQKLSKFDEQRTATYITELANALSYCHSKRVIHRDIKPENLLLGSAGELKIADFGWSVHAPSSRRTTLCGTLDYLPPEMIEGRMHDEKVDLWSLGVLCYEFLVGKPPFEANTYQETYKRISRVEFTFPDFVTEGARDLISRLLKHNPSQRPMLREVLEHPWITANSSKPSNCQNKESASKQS

[17] = biological target: Serine/threonine-protein kinase TBK1 (Homo sapiens, UniProt Q9UHD2); test: Navigating the Kinome. Panel member name: TBK1; assay type: functional
[18] = biological target: Calcium/calmodulin-dependent protein kinase type II subunit alpha (Homo sapiens, UniProt Q9UQM7); test: Navigating the Kinome. Panel member name: CAMK2A; assay type: functional
[19] = biological target: cAMP-dependent protein kinase catalytic subunit alpha (Homo sapiens, UniProt P17612); assay type: functional
[20] = biological target: Cyclin-dependent kinase 5 (Homo sapiens, UniProt Q00535); assay type: functional;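 also: CDK5 measured as one member of a kinase profiling panel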
LIM domain kinase 1 = LIM domain kinase 1 (Homo sapiens, UniProt P53667); test: Navigating the Kinome. Panel member name: LIMK1; assay type: functional
[21] = biological target: Vascular endothelial growth factor receptor 2 (Homo sapiens, UniProt P35968); assay type: functional
Chain of Vascular endothelial growth factor receptor 2 (P35968 whole entry): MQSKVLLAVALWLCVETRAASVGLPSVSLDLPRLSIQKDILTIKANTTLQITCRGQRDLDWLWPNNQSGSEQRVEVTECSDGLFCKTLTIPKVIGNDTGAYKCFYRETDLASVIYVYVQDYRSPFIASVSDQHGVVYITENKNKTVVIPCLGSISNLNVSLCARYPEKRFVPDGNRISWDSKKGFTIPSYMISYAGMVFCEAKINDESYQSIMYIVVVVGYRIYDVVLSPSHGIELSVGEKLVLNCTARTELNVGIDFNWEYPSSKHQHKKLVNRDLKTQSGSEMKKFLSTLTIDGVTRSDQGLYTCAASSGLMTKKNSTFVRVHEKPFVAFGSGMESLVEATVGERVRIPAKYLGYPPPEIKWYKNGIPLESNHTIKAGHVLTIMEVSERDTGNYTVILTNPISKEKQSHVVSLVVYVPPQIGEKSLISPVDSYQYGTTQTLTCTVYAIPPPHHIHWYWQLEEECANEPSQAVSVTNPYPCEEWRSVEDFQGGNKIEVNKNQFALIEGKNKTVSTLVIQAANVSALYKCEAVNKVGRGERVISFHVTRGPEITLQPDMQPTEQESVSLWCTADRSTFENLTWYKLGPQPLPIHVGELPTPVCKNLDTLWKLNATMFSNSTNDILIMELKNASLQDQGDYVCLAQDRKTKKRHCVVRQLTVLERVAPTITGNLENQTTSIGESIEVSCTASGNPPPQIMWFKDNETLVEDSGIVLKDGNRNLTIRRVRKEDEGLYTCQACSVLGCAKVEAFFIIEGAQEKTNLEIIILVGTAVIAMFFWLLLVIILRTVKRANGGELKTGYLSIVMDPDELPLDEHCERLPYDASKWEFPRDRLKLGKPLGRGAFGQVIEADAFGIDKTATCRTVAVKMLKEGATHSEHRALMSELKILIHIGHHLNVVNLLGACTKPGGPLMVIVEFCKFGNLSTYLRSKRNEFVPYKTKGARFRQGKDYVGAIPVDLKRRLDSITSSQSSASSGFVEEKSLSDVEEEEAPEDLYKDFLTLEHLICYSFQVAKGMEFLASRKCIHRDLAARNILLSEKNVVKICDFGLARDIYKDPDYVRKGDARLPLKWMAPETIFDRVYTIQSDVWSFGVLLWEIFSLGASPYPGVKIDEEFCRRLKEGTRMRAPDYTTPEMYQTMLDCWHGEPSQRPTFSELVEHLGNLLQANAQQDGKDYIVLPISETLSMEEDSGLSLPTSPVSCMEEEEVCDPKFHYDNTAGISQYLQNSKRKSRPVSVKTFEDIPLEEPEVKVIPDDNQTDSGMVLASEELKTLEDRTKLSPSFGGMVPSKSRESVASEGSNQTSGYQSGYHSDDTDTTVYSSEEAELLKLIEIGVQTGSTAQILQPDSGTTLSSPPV

[22] = biological target: Fibroblast growth factor receptor 1 (Homo sapiens, UniProt P11362); assay type: functional
[23] = biological target: Proto-oncogene tyrosine-protein kinase receptor Ret (Homo sapiens, UniProt P07949); assay type: functional;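 also: measured within a kinome-wide profiling panel, RET as the panel member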
[24] = biological target: Serine/threonine-protein kinase Chk1 (Homo sapiens, UniProt O14757); assay type: functional;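 also: measured as one member of a kinome-wide kinase profiling panel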
[25] = biological target: Serine/threonine-protein kinase TAO1 (Homo sapiens, UniProt Q7L7X3); assay type: functional
[26] = biological target: Mitogen-activated protein kinase kinase kinase kinase 4 (Homo sapiens, UniProt O95819); assay type: functional
[27] = biological target: Dual specificity protein kinase CLK2 (Homo sapiens, UniProt P49760); assay type: functional
[28] = biological target: Mitogen-activated protein kinase 8 (Homo sapiens, UniProt P45983); assay type: functional;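 also: value comes from one member of a kinome-wide kinase profiling panel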
[29] = biological target: Cyclin-dependent kinase 7 (Homo sapiens, UniProt P50613); assay type: functional;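 also: value comes from a kinome-wide kinase profiling panel in which CDK7 is one member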
Focal adhesion kinase 1 = Focal adhesion kinase 1 (Homo sapiens, UniProt Q05397); assay type: functional;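 also: measured as one member of a kinome panel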
[30] = biological target: Tyrosine-protein kinase JAK2 (Homo sapiens, UniProt O60674); assay type: functional;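 also: JAK2 tested as one member of a kinase panel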
[31] = biological target: Leucine-rich repeat serine/threonine-protein kinase 2 (Homo sapiens, UniProt Q5S007); assay type: functional;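 also: value from a broad kinome-wide panel profiling study in which LRRK2 was one of the kinases tested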
[32] = biological target: Casein kinase I isoform alpha (Homo sapiens, UniProt P48729); assay type: functional
[33] = biological target: Serine/threonine-protein kinase pim-1 (Homo sapiens, UniProt P11309); assay type: functional
Chain of Serine/threonine-protein kinase pim-1 (P11309 whole entry): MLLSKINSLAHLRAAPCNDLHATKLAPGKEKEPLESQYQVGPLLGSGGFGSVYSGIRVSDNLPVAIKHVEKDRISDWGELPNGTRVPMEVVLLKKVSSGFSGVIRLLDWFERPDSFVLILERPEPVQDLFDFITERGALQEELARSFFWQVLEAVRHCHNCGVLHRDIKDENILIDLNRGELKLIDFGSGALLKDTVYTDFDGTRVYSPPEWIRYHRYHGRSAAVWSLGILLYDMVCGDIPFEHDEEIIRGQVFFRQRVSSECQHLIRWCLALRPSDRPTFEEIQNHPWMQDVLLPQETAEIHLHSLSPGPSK

[34] = biological target: Glycogen synthase kinase-3 beta (Homo sapiens, UniProt P49841); assay type: functional;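 also: value comes from a broad kinome profiling panel, with GSK3B as the panel member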
[35] = biological target: Mitogen-activated protein kinase kinase kinase kinase 2 (Homo sapiens, UniProt Q12851); assay type: functional;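 also: measured as one member of a kinome-wide kinase panel, with MAP4K2 as the panel entry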
Activated CDC42 kinase 1 = Activated CDC42 kinase 1 (Homo sapiens, UniProt Q07912); test: Navigating the Kinome. Panel member name: ACK1; assay type: functional
[36] = biological target: Macrophage-stimulating protein receptor (Homo sapiens, UniProt Q04912); test: Navigating the Kinome. Panel member name: MST1R; assay type: functional
[37] = biological target: Macrophage colony-stimulating factor 1 receptor (Homo sapiens, UniProt P07333); assay type: functional;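 also: value comes from the Navigating the Kinome screening panel, CSF1R member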
[38] = biological target: Dual specificity tyrosine-phosphorylation-regulated kinase 1B (Homo sapiens, UniProt Q9Y463); test: Navigating the Kinome. Panel member name: DYRK1B; assay type: functional
[39] = biological target: Tyrosine-protein kinase ABL1 (Homo sapiens, UniProt P00519); assay type: functional
[40] = biological target: Insulin-like growth factor 1 receptor (Homo sapiens, UniProt P08069); test: Navigating the Kinome. Panel member name: IGF1R; assay type: functional
[41] = biological target: Leukocyte tyrosine kinase receptor (Homo sapiens, UniProt P29376); test: Navigating the Kinome. Panel member name: LTK; assay type: functional
[42] = biological target: Serine/threonine-protein kinase PAK 4 (Homo sapiens, UniProt O96013); assay type: functional;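 also: value obtained within a kinome profiling panel in which PAK4 was one of the panel members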
[43] = biological target: Dual specificity mitogen-activated protein kinase kinase 2 (Homo sapiens, UniProt P36507); test: Navigating the Kinome. Panel member name: MAP2K2; assay type: functional
[44] = biological target: Glycogen synthase kinase-3 alpha (Homo sapiens, UniProt P49840); assay type: functional;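 also: GSK3A result taken from a broad kinome-wide kinase panel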
Activin receptor type-1 = Activin receptor type-1 (Homo sapiens, UniProt Q04771); test: Navigating the Kinome. Panel member name: ACVR1; assay type: functional
[45] = biological target: Mitogen-activated protein kinase 9 (Homo sapiens, UniProt P45984); assay type: functional;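 also: value from a kinome panel profiling assay, MAPK9 panel entry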
[46] = biological target: Dual specificity protein kinase CLK4 (Homo sapiens, UniProt Q9HAZ1); assay type: functional
[47] = biological target: Platelet-derived growth factor receptor alpha (Homo sapiens, UniProt P16234); test: Navigating the Kinome. Panel member name: PDGFRA; assay type: functional
[48] = biological target: Death-associated protein kinase 3 (Homo sapiens, UniProt O43293); assay type: functional;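 also: measured as one member of a kinome-wide profiling panel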
[49] = biological target: Vascular endothelial growth factor receptor 1 (Homo sapiens, UniProt P17948); assay type: functional;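 also: measured within a kinome-wide profiling panel, FLT1 as the panel member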
[50] = biological target: Cyclin-dependent kinase 19 (Homo sapiens, UniProt Q9BWU1); test: Navigating the Kinome. Panel member name: CDC2L6; assay type: functional
[51] = biological target: Mitogen-activated protein kinase 14 (Homo sapiens, UniProt Q16539); assay type: functional;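 also: part of a kinome-wide panel, MAPK14 entry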
[52] = biological target: Platelet-derived growth factor receptor beta (Homo sapiens, UniProt P09619); assay type: functional;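 also: value comes from a kinome panel, with PDGFRB tested as one panel member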
[53] = biological target: Casein kinase I isoform delta (Homo sapiens, UniProt P48730); assay type: functional;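 also: measured as one member (CSNK1D) of a kinome panel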
[54] = biological target: DNA dC->dU-editing enzyme APOBEC-3A (Homo sapiens, UniProt P31941); test: SAR analysis of small molecule inhibitors of APOBEC3A DNA Deaminase via a fluorescence-based single-stranded DNA deaminase assay.; assay type: functional; conditions: read-out: IC50_Mean
[55] = biological target: DNA dC->dU-editing enzyme APOBEC-3G (Homo sapiens, UniProt Q9HC16); test: APOBEC3G deaminase inhibitors, SAR follow-up, biochemical, fluorescence, single-stranded DNA substrate (AID 602136); assay type: functional; conditions: read-out: IC50_Mean
Insulin-degrading enzyme [56] = biological target: T1, Insulin-degrading enzyme (Homo sapiens, UniProt P14735); test: activators of recombinant IDE enzyme, dose response, counter-screen for IDE activator project, biochemical, fluorescence polarization (AID 588681)
T1 sequence (P14735 whole entry): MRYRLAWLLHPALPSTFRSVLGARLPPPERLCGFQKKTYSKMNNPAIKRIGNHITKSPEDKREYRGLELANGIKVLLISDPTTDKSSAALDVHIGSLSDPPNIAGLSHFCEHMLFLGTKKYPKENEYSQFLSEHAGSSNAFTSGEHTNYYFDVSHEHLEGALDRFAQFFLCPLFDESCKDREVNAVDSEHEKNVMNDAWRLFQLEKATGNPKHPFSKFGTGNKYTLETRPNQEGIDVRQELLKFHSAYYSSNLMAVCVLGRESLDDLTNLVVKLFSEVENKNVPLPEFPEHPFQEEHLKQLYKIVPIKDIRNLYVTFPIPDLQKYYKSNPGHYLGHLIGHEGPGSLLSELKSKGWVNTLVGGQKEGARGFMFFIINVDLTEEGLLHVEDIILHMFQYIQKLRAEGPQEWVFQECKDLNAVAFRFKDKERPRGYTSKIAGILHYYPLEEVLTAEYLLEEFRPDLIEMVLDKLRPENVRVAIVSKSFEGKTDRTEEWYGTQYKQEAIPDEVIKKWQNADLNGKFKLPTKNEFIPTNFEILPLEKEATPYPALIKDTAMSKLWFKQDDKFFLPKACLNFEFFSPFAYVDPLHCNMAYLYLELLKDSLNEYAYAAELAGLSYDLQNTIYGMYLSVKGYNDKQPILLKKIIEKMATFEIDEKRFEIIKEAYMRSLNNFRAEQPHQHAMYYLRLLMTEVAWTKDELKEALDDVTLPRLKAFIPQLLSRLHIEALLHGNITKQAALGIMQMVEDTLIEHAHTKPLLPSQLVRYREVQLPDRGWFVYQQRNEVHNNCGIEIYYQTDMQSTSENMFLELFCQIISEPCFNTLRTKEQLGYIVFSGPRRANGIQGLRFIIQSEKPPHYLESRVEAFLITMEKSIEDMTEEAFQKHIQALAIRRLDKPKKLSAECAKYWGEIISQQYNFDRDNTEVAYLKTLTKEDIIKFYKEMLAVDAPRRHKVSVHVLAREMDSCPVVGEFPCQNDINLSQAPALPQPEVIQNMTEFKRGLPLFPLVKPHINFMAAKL

HEK293 [57] = test: optical interference in Abeta FP readout, dose response, artefact control for IDE activator project, biochemical, fluorescence polarization (AID 588442); assay type: functional, cell-based; conditions: Homo sapiens
HEK293 [58] = test: HEK cell cytotoxicity by LDH release, dose response, cytotoxicity control for IDE activator project, fluorescence, HEK cells (AID 588440); assay type: functional, cell-based; conditions: Homo sapiens;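 also: cytotoxicity by LDH release measuring loss of membrane integrity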
Insulin-degrading enzyme [59] = biological target: T1, Insulin-degrading enzyme; test: activators of endogenous IDE in HEK cells, dose response, cell-based, fluorescence polarization (AID 588439); assay type: functional
HEK293 [60] = test: cells; conditions: Homo sapiens
HEK293 [61] = test: cells; conditions: Homo sapiens; remark: listed apart in the source
[62] = biological target: Protein disulfide-isomerase (Homo sapiens, UniProt P07237); test: PDI inhibitors, insulin aggregation turbidity, dose response, biochemical, absorbance, cherry-picked samples (AID 602350); assay type: functional
Vero = test: cells; assay type: functional; conditions: Chlorocebus sabaeus

Cc1n[nH]c2ccc(-c3cccnc3)cc12
Ki [1]: 79.4 µM (active) | Ki [2]: 20 µM (active) | Ki [3]: 0.794 µM (active) | Ki [4]: 79.4 µM (active) | Ki [5]: 0.251 µM (active) | Ki [6]: 2.51 µM (active) | Ki [7]: 79.4 µM (active) | Ki [8]: 0.0251 µM (active) | Ki [9]: 63.1 µM (active) | Ki [10]: 10 µM (active) | Ki [11]: 20 µM (active) | Ki [12]: 6.31 µM (active) | Ki [13]: 0.126 µM (active) | Ki [14]: 12.6 µM (active) | Ki [15]: 0.0398 µM (active) | Ki (Aurora kinase B): 10 µM (active) | Ki [16]: 63.1 µM (active) | Ki (Aurora kinase A): 15.8 µM (active) | Ki [17]: 39.8 µM (active) | Ki [18]: 12.6 µM (active) | Ki [19]: 2.51 µM (active) | Ki [20]: 0.126 µM (active) | Ki (LIM domain kinase 1): 79.4 µM (active) | Ki [21]: 6.31 µM (active) | Ki [22]: 50.1 µM (active) | Ki [23]: 39.8 µM (active) | Ki [24]: 63.1 µM (active) | Ki [25]: 50.1 µM (active) | Ki [26]: 2.51 µM (active) | Ki [27]: 0.0631 µM (active) | Ki [28]: 5.01 µM (active) | Ki [29]: 7.94 µM (active) | Ki (Focal adhesion kinase 1): 25.1 µM (active) | Ki [30]: 7.94 µM (active) | Ki [31]: 0.398 µM (active) | Ki [32]: 7.94 µM (active) | Ki [33]: 7.94 µM (active) | Ki [34]: 3.98 µM (active) | Ki [35]: 3.98 µM (active) | Ki (Activated CDC42 kinase 1): 50.1 µM (active) | Ki [36]: 12.6 µM (active) | Ki [37]: 31.6 µM (active) | Ki [38]: 0.0126 µM (active) | Ki [39]: 25.1 µM (active) | Ki [40]: 39.8 µM (active) | Ki [41]: 3.16 µM (active) | Ki [42]: 79.4 µM (active) | Ki [43]: 10 µM (active) | Ki [44]: 3.98 µM (active) | Ki (Activin receptor type-1): 3.98 µM (active) | Ki [45]: 20 µM (active) | Ki [46]: 0.002 µM (active) | Ki [47]: 31.6 µM (active) | Ki [48]: 2 µM (active) | Ki [49]: 31.6 µM (active)

C(=Cc1ccc2nccn2n1)c1ccccc1
Ki [3]: > 63.1 µM (inactive) | Ki [8]: 12.6 µM (active) | Ki [13]: > 100 µM (inactive) | Ki [15]: > 79.4 µM (inactive) | Ki (Aurora kinase A): > 63.1 µM (inactive) | Ki [19]: 5.01 µM (active) | Ki [21]: > 100 µM (inactive) | Ki [50]: > 100 µM (inactive) | Ki [26]: 7.94 µM (active) | Ki [51]: 100 µM (active) | Ki [31]: 3.98 µM (active) | Ki [52]: > 79.4 µM (inactive) | Ki [37]: > 100 µM (inactive) | Ki [46]: 3.98 µM (active)

CN1CCN(Cc2ccc3c(c2)-c2n[nH]c(=O)c4cccc(c24)O3)CC1
Ki [53]: 3.16 µM (active) | Ki [33]: 5.01 µM (active)

COc1ccc2c(Cl)c(-c3nnc(SCC(=O)c4ccc(F)cc4)n3C)sc2c1
IC50 [54]: > 99 µM (inactive) | IC50 [55]: > 99 µM (inactive)

CCCCCc1nnc(NC(=O)C2CCCO2)s1 (stereo unspecified)
EC50 (Insulin-degrading enzyme [56]): > 54.7 µM (inactive) | EC50 (HEK293 [57]): > 54.7 µM (inactive) | IC50 (HEK293 [58]): > 89.1 µM (inactive) | EC50 (Insulin-degrading enzyme [59]): > 54.7 µM (inactive)

COC1/C=C/C=C(\C)Cc2cc(O)c(Cl)c(c2)N(C)C(=O)CC(OC(=O)C(C)C)C2(C)OC2C(C)C2CC1(O)NC(=O)O2 (stereo unspecified)
EC50 (HEK293 [60]): > 59.7 µM (inactive) | EC50 (HEK293 [61]): > 59.7 µM (inactive) | AC50 [62]: 9.59 µM (active) | CC50 (Vero): < 0.05 µM (active)
